Experimental data taken from PMC4459817, “Vasculotide reduces endothelial permeability and tumor cell extravasation in the absence of binding to or agonistic activation of Tie2” (EMBO Molecular Medicine, 2015).

Assays:
[1] = tested on: orthotopic LM2-4luc breast cancer xenografts; test: orthotopic LM2-4luc xenografts, unresected: primary tumor and spontaneous metastasis; type: in vivo, human LM2-4luc cells in CB-17 SCID mice; details: for primary tumor growth: VT from 10DPI, SU 7 days from 17DPI, n = 8, volume or bioluminescence, Fig5A–C
Description: The first experiment involved VT and SU treatments in the presence of an unresected primary tumor (Fig5). At 10 days post-implantation (DPI), when primary tumors reached an average size of ∽175 mm^3, mice were randomized into groups and chronic VT therapy was initiated. At 17DPI, when tumors reached an average size (∽400 mm^3) where tumor debulking is typically required for long-term metastasis experiments, a 7-day anti-angiogenic SU treatment was initiated in lieu of surgical resection.
In vivo experiments were performed in strict accordance with protocols approved by the Sunnybrook Research Institute Animal Care Committee, accredited by the Canadian Council of Animal Care. All surgical, imaging, and euthanasia procedures were performed under inhaled isoflurane anesthesia. Experimental metastasis models involved injections of 10^6 tumor cells, suspended in 200 μl serum-free DMEM, into the mouse tail vein. LM2-4^luc implantations were performed on 6 to 8-week-old female CB-17 SCID mice (Charles River Canada). HT29^luc implantations were performed on 19- to 20-week-old male and 11- to 12-week-old female YFP-SCID mice (bred in-house). SN12^luc implantations were performed on 9-week-old male YFP-SCID mice. Spontaneous metastasis models involved orthotopic implantations of 2 × 10^6 LM2-4^luc cells/50 μl serum-free DMEM in the right inguinal mammary fat pads of 6-week-old female CB-17 SCID mice.
Sunitinib malate (SU), from Pfizer or LC Laboratories, and its vehicle were formulated as described before (Ebos et al, [2009]). SU was administered by oral gavage (PO), once daily, at a dose of 60 mg/kg mouse weight. Vasculotide (VT): VT synthesized at the Sunnybrook Research Institute (Toronto, ON, Canada) was used in experiments described in Fig2(A–D) and Supplementary Fig S5(A and B). VT synthesized by American Peptide (Sunnyvale, CA, USA) was used in experiments described in Fig5. VT synthesized by Bachem UK Ltd was used in experiments described in Figs1, 2(E–H), 3, 4, 6–9, Supplementary Figs S2, and S5(C and D). Lyophilized product was reconstituted in PBS to 500 μg/500 μl stock aliquots and stored at −80°C. As needed, stock aliquots were diluted with PBS to a 250 ng/50 μl working concentration and stored in 0.4–1 ml aliquots at −80°C. VT (at a standard dose of 250 ng/mouse) or its vehicle (PBS) was administered to mice by intraperitoneal (IP) injections every other day.
5. Bioluminescence imaging (BI) of tumor burden
For in vivo BI: Mice were injected intraperitoneally with 150mg/kg luciferin (Promega) 10 minutes prior to and anesthetized with isofluorane just before luminescent pseudocolor imaging (uniform settings: CCD camera locked at -105 °C, exposure=60s, f/1, subject size=1.5cm, bin=8, FOV=23.2cm, full image correction) using the IVIS 200 Imaging System (Caliper/PerkinElmer). Using the Living Image software (v2.50.1, Xenogen), weekly images were analyzed under uniform color range on grayscale photographic overlay. Total fluxes (photons/sec) were quantified within consistent regions of interest and statistically compared ideally at a timepoint before any deaths have occurred.
For ex vivo BI: Mice were sacrificed at 7 mins after luciferin injections, then organs of interest were dissected and individually placed within 24-well plates for imaging at 10 min post-luciferin injection.
6. Immunohistochemical (IHC) analysis of lung metastases
Surgically dissected lungs were fixed in 4% paraformaldehyde (PFA) overnight and stored in 70% ethanol. Three paraffin-embedded cross-sections per lung, 5-μm thick, 60 μ m apart, were subjected to IHC staining using a serum-free protein block (Dako X0909), an anti-human vimentin antibody (clone V9, Invitrogen 18-0052; 1:100 in Dako S3022 diluent), the universal ‘LSAB+, HRP’ detection kit (Dako K0690), the DAB+ chromogen-substrate system (Dako K3467) and hematoxylin counterstain.
Quantification procedure involved visual survey of entire tissue sections and tallying of DAB-stained […]

dermal HMVECs = test: modified Boyden chamber, tumor cell-conditioned media (TC-CM) stimulated dextran permeability; type: cell-based, human; details: 20 ng/mL VT or 400 ng/mL Ang1 vs PBS; paired t-test, n = 11 experimental replicates; Fig4A
Description: To investigate this possibility in vitro, we performed modified Boyden chamber assays where we stimulated ECs with tumor cell-conditioned media (TC-CM)—that is, supplement-reduced EC growth media containing all the cytokines naturally secreted by LM2-4^luc, SN12^luc, or HT29^luc cells over 30 hours of hypoxic incubation (1% O2).
Meta-analyses of treatment effects on dextran permeability (A) and tumor cell migration (B), where each datapoint represents the mean of an independent experiment, averaged over 2–3 biological replicates (inserts) per treatment group and normalized internally within that same experiment.
Endothelial cells (ECs) were grown on cell culture inserts with uncoated 8-μm-pore PET filter membranes to 100% confluency. See Supplementary Fig S4 for detailed timelines. […] Permeability assays: A total of 100 μg of FITC-dextran (Sigma FD-20S) was dispensed into the upper chamber media. After 30 min of thrombin stimulation or 4–6 h of TC-CM stimulation, FITC fluorescence (ex/em = 490/520 nm) was measured from a 50 μl sample of the lower chamber media. […] CMPTX fluorescence from migrated TCs was then quantified from 10× microscopy images using a MATLAB (MathWorks, Natick, MA, USA) script; five images (technical replicates) were analyzed per insert. […]

[2] = 39DPI, SU 1wk with or without VT, Fig5F

CCN(CC)CCNC(=O)c1c(C)[nH]c(/C=C2\C(=O)Nc3ccc(F)cc32)c1C [sunitinib, reference compound]
incidence of lung metastases (ex vivo bioluminescent imaging) [1, 2]: 4/8
incidence of lymph node metastases (ex vivo bioluminescent imaging) [1, 2]: 4/8
primary tumor burden by volume ([1]; SU 7-day, one-way ANOVA, Fig5B): significantly lowered primary tumor burden
primary tumor burden by bioluminescent activity ([1]; SU 7-day, one-way ANOVA, Fig5C): significantly lowered primary tumor burden
primary tumor growth [1]: effectively stabilized primary tumor growth

CHHHRHSF [Vasculotide, 4-armed maleimide-functionalized polyethylene glycol (PEG) backbone to link together four cysteine-capped T7 peptides, that is, CHHHRHSF]
incidence of lymph node metastases (ex vivo bioluminescent imaging) ([1]; 32DPI, vehicle 2/8, Fig5F): 1/8
incidence of lung metastases (ex vivo bioluminescent imaging) ([1]; 32DPI, vehicle 6/8, Fig5F): 2/8
mean thickness of the viable peripheral regions of primary tumors (H&E) ([1]; 22 days of VT treatment, Fig5D): did not alter the mean thickness of the viable peripheral regions
mean thickness of the CAIX+ hypoxic edge of primary tumors ([1]; 22 days of VT treatment, Fig5E): did not alter the mean thickness of the CAIX^+ hypoxic edge
primary tumor growth [1]: did not alter the growth kinetics of primary tumors
lung metastatic nodule size distribution (human vimentin IHC) ([1]; VT monotherapy, P = 0.05–0.09, Fig5G): delayed the seeding or progression of lung micrometastases
anti-metastatic benefit of concurrent VT treatment by regional IHC analysis ([1]; VT with SU, Fig5G): not detectable by regional IHC analysis
metastatic involvement in the lungs (EVBI) ([1]; VT-treated groups vs vehicle or SU monotherapy, Fig5F): trends of reduced incidences of metastatic involvement in the lungs, but no change in the lymph nodes
transendothelial macromolecular (dextran) permeability in presence of TC-CM (dermal HMVECs): reduced transendothelial macromolecular permeability (P < 0.05

B1: recombinant human Ang1 (rhAng1) (ligand, UniProt Q15389 16-498, looked up)
chain: HIGCSNQRRSPENSGRRYNRIQHGQCAYTFILPEHDGNCRESTTDQYNTNALQRDAPHVEPDFSSQKLQHLEHVMENYTQWLQKLENYIVENMKSEMAQIQQNAVQNHTATMLEIGTSLLSQTAEQTRKLTDVETQVLNQTSRLEIQLLENSLSTYKLEKQLLQQTNEILKIHEKNSLLEHKILEMEGKHKEELDTLKEEKENLQGLVTRQTYIIQELEKQLNRATTNNSVLQKQQLELMDTVHNLVNLCTKEGVLLKGGKREEEKPFRDCADVYQAGFNKSGIYTIYINNMPEPKKVFCNMDVNGGGWTVIQHREDGSLDFQRGWKEYKMGFGNPSGEYWLGNEFIFAITSQRQYMLRIELMDWEGNRAYSQYDRFHIGNEKQNYRLYLKGHTGTAGKQSSLILHGADFSTKDADNDNCMCKCALMLTGGWWFDACGPSNLNGMFYTAGQNHGKLNGIKWHYFKGPSYSLRSTTMMIRPLDF
notes: angiopoietin-1, human, recombinant; also called angiopoietin-1; source: bought: R&D Systems (named for the Boyden chamber experiments)
transendothelial macromolecular (dextran) permeability in presence of TC-CM (dermal HMVECs): reduced transendothelial macromolecular permeability (P < 0.05
